The values below come from paper PMC4084896 (PLoS ONE, 2014).

By IC50 is commonly meant the concentration needed to halve the response being measured.

Experiment [1] addresses T1, AhR (Mus musculus, UniProt P30561).
T1 construct: endogenous in cells; host or cells: mouse hepatoma Hepa-1c1c7 cells (living cells treated 2 h, then nuclear extracts made)
Description: EMSA with nuclear extracts from Hepa-1c1c7 cells (AhR-ARNT-DRE complex). In kind it is cell-based. Particulars: Hepa-1c1c7 nuclear extracts, 50 µM, 2 h. The method, then: Electrophoretic mobility shift assay was performed in guinea pig cytosol and nuclear extract from mouse hepatoma cells. Hepa-1c1c7 cells were incubated for 2 h with tested compounds. Nuclear extracts procedure and EMSA analysis was performed as previously described (Soshilov & Denison; 2014). Guinea pig hepatic cytosol (8 mg/mL in HEDG) was incubated for 2 h in a room temperature water bath with tested compounds. An aliquot of the reaction was mixed with poly[dI•dC] and [^32P]-DRE (100.000 cpm), and AHR:DRE:[^32P]DRE complexes were resolved by gel retardation analysis, visualized by autoradiography and quantified by phosphorimager analysis (FujiFilm) of the dried gels.
We carried out the electrophoretic mobility shift assay (EMSA) to reveal whether effects of KET on AhR-CYP1A pathway involve transformation of AhR to DNA binding form, and whether these effects are enantiospecific. For this purpose, EMSA was performed in two experimental systems: (i) Hepatic guinea pig cytosol was treated for 2 hours with DMSO, 20 nM TCDD, (+)-KET, (−)-KET and commercial rac-KET (from Sigma) at 10 µM, 30 µM and 50 µM. All forms of KET transformed AhR to DNA binding form, but the activation was very weak and not statistically above background. There was a slightly stronger effect of (+)-KET and rac-KET as compared to (−)-KET, but the difference was not significant (Figure 4A). (ii) Since we obtained only weak signals in guinea pig liver cytosols, we also analyzed nuclear extracts from mouse hepatoma Hepa-1c1c7 cells treated for 2 hours with DMSO, TCDD (10 nM), (+)-KET (50 µM), (−)-KET (50 µM), commercial rac-KET (Sigma; 50 µM) or an equimolar mix of (+)/(−) enantiomers (50 µM total). […] The effects of (−)-KET were slightly stronger as compared to (+)-KET. […] In addition, we observed formation of the second band with lower molecular weight than AhR-ARNT-DRE, by purified KET enantiomers but not by TCDD and commercial KET.

The target of experiment [2] is T2, glucocorticoid receptor (GR) (Homo sapiens, UniProt P04150).
T2 sequence (P04150 1-777): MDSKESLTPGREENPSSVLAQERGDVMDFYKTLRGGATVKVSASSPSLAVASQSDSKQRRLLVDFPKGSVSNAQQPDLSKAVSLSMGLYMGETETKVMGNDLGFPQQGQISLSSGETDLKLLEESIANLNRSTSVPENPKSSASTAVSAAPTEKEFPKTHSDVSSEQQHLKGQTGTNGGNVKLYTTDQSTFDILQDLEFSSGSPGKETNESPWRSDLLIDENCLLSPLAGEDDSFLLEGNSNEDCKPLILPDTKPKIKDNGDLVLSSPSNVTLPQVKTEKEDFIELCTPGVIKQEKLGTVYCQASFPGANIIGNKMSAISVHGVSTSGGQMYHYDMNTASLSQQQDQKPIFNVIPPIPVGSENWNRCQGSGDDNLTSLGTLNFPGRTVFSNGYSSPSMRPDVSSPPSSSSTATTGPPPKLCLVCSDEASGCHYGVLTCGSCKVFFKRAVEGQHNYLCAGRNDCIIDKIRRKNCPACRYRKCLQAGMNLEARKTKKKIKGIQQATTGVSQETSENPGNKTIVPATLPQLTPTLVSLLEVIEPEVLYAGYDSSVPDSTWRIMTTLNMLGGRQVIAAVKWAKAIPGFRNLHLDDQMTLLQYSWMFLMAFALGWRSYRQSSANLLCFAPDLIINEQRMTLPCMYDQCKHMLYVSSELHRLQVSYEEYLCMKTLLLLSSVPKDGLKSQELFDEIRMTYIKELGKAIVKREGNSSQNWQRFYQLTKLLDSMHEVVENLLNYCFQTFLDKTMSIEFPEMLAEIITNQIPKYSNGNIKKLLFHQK
Description: GR gene reporter assay in AZ-GR cells, antagonist mode (DEX 100 nM). In kind it is cell-based. Particulars: 24 h; for IC50: in the presence of DEX 100 nM. The source says: A stably transfected gene reporter cell line AZ-AHR, derived from human hepatoma HepG2 cells transfected with a construct containing several AhR binding sites upstream of a luciferase reporter gene, was used for assessment of AhR transcriptional activity. A stably transfected gene reporter cell line AZ-GR, derived from human cervix carcinoma HeLa cells transfected with a construct containing several GR response elements upstream of a luciferase reporter gene, was used for assessment of GR transcriptional activity. Cells were incubated for 24 h with tested compounds and/or vehicle (DMSO; 0.1% v/v), in the presence or absence of TCDD (5 nM; AZ-AHR cells) or DEX (100 nM; AZ-GR cells). After the treatments, cells were lysed and luciferase activity was measured. In parallel, cell viability was determined by conventional MTT test.
There is multiple evidence for the role of glucocorticoid receptor (GR) in regulation of AhR activity. […] Gene reporter assays were performed in agonist and antagonist mode (similarly as described in section 3.1.).
On the technique in general: In a reporter assay the amount or activity of a reporter protein is the signal.

In experiment [3] the test system is tyrosine aminotransferase (TAT) mRNA. Description: TAT mRNA in HepG2 cells (qRT-PCR). In kind it is cell-based, human. Particulars: HepG2, 1, 30, 50 µM, 24 h. Background: Real-time PCR tracks product formation cycle by cycle.

T1 sequence (P30561 10-805 limits assumed): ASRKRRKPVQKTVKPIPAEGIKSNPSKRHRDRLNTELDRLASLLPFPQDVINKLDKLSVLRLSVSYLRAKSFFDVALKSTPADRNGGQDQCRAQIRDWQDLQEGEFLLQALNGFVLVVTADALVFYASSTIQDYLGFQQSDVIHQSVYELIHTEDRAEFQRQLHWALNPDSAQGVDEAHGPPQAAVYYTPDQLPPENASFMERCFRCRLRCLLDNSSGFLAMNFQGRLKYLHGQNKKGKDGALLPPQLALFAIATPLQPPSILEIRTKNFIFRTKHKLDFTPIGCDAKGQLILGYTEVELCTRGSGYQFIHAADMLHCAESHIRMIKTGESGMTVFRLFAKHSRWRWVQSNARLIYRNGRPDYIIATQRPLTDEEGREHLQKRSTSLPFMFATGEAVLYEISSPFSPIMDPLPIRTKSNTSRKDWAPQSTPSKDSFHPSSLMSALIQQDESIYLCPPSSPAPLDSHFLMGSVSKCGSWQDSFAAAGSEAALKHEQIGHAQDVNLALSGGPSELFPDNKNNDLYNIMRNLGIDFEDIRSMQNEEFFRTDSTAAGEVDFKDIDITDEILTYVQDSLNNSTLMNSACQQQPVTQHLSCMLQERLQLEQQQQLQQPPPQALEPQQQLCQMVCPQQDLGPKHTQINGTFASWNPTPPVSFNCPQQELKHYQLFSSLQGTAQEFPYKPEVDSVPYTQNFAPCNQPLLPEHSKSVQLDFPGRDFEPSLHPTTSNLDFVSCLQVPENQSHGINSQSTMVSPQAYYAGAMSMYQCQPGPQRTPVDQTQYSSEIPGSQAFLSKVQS
T1 sequence (P53762 whole entry partner): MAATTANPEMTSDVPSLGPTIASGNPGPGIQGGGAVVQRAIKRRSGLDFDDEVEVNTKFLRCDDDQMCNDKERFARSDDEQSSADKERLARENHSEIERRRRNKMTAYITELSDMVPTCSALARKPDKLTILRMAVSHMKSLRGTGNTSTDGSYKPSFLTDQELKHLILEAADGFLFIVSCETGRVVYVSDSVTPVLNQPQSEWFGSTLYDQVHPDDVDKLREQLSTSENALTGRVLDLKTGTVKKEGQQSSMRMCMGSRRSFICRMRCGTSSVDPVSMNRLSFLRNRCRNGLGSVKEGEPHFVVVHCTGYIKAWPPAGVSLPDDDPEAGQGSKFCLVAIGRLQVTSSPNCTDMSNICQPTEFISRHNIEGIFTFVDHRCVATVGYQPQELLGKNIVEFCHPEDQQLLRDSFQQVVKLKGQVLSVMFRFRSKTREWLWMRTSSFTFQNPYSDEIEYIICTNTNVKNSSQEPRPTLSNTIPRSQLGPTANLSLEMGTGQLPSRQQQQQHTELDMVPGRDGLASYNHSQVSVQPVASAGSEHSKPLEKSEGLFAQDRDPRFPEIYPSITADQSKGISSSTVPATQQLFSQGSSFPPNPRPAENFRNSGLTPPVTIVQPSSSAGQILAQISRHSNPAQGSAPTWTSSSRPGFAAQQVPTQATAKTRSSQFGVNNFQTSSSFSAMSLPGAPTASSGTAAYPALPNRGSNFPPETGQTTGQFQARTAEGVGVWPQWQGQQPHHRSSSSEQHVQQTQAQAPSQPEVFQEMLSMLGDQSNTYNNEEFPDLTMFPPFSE

For `CC(=O)N1CCN(c2ccc(OCC3COC(Cn4ccnc4)(c4ccc(Cl)cc4Cl)O3)cc2)CC1` (racemic) [rac-KET, ketoconazole], the “formation of AhR-ARNT-DRE complex, % of TCDD effects” value in experiment [1] (TCDD 10 nM) is given as “approx. 60%”. The “inhibition of DEX-induced luciferase activity (in words)” value in experiment [2] (DEX 100 nM) is “only weak inhibition”. For the same compound, the IC50 in experiment [2] was over 100 µM. For the same compound, in experiment [3], the “TAT mRNA induction (in words)” value was “strong, concentration-dependent induction”.

With `CC(=O)N1CCN(c2ccc(OC[C@H]3CO[C@](Cn4ccnc4)(c4ccc(Cl)cc4Cl)O3)cc2)CC1` [(+)-KET, (2R,4S)-(+)-KET], the “transformation of AhR to DNA binding form (in words)” value in experiment [1] is “only weakly transformed”. The IC50 in experiment [2] is 29.6 ± 0.9 µM. Also, the “TAT mRNA induction (in words)” value in experiment [3] is reported as “strong, concentration-dependent induction”.
